Results: PMC10673995, “Discovery of a novel cardiac-specific myosin modulator using artificial intelligence-based virtual screening” (Nature Communications, 2023)
Several values for one entry are separate records, joined by “and”; a condition that tells them apart may be missing. Equal values may be shown once.

Experiments:
cardiac myofibrils = test: Myofibrillar ATPase, cardiac (ventricle) myofibrils; format: biochemical, marmoset (Callithrix jacchus)
Source text: (§1) Next we tested the myosin isoform specificity of F10 by measuring its effect on the ATPase activity of myofibrils isolated from ventricle, and fast (Tiberialis Anterior) and slow skeletal muscles (Soleus) isolated from marmoset (Callithrix jacchus).
(§2) Demembranated myofibrils were freshly prepared from bovine ventricle on the day of the experiments as previously described[25],[63]. Marmoset ventricular and skeletal muscle tissue was kindly provided by the Biological Service Unit of King’s College London. Steady-state myofibrillar ATPase activity was measured using an identical protocol as described above but in myofibril assay buffer (composition in mmol L^−1: 20 MOPS pH 7, 50 KCl, 0.1 CaCl2, 1 DTT) with a final bovine CMF concentration of 1 mg mL^−1.

[1] = system: slow skeletal muscle (Soleus) myofibrils; test: Myofibrillar ATPase, slow skeletal myofibrils; format: biochemical, marmoset (Callithrix jacchus)
Source text: as §1, §2

[2] = system: demembranated rat ventricular trabeculae; test: Mechanics of demembranated ventricular trabeculae (force, pCa50, ktr); set-up: Isometric force, individual trabeculae / force re-development, Representative Traces: unit not given here; conditions: for Normalized force, Force-pCa Titration / force re-development, Representative Traces: 20 μM F10; for Normalized Force (Tension): pCa 5.9
Method: Wistar rats (Rattus norvegicus, male, 200–250 g, 7 weeks old) were killed by cervical dislocation without the use of anesthetics (Schedule 1 procedure in accordance with UK Animal Scientific Procedure Act, 1986) and demembranated right ventricular trabeculae were prepared as described previously.
BSR-cRLCs were exchanged into demembranated trabeculae by extraction in CDTA-rigor solution (composition in mmol L^−1: 5 CDTA, 50 KCl, 40 Tris-HCl pH 8.4, 0.1% (v/v) Triton X-100) for 30 min followed by reconstitution with 40 μmol L^−1 BSR-cRLC in relaxing solution (composition in mmol L^−1: 25 Imidazole, 15 Na2Creatine phosphate (Na2CrP), 78.4 KPropionate (KPr), 5.65 Na2ATP, 6.8 MgCl2, 10 K2EGTA, 1 DTT, pH 7.1) for 1 h, replacing ~50% of the endogenous cRLC[40],[64].
The sarcomere length of trabeculae was adjusted to 2.1 μm by laser diffraction in relaxing solution prior to each activation. […] Each activation was preceded by a 2-min incubation in pre-activating solution (composition in mmol L^−1: 25 Imidazole, 15 Na2CrP, 108.2 KPr, 5.65 Na2ATP, 6.3 MgCl2, 0.2 K2EGTA, 1 DTT, pH 7.1). Solutions with varying concentrations of free [Ca^2+] were prepared by mixing relaxing and activating solutions using MAXCHELATOR software (maxchelator.stanford.edu). Isometric force and steady-state fluorescence polarization values were measured once steady force had been established. The dependence of force and order parameters on free calcium concentration was fitted to data from individual trabeculae using non-linear least-squares regression to the modified Hill Eq. (1):1 F=Y0+A⋅([Ca^2+]^nH)/(−log10[pCa50]^nH+[Ca^2+]^nH) where pCa50 is the negative logarithm of [Ca^2+] corresponding to half-maximal change in F, nH is the Hill coefficient, Y0 is the baseline, and A is the amplitude (for normalized force data: Y0 = 0 and A = 1).

[3] = system: phospholipid biosynthesis in mammalian cells; set-up: method as in PubChem; conditions: ref PubChem; cited from earlier work
[4] = target: bovine cardiac myofibrils (CMF) (Bos taurus, UniProt Q9BE39); test: Bovine cardiac myofibrillar ATPase dose-response (F10 and derivatives)
Chain of bovine cardiac myofibrils (CMF) (Q9BE39 whole entry): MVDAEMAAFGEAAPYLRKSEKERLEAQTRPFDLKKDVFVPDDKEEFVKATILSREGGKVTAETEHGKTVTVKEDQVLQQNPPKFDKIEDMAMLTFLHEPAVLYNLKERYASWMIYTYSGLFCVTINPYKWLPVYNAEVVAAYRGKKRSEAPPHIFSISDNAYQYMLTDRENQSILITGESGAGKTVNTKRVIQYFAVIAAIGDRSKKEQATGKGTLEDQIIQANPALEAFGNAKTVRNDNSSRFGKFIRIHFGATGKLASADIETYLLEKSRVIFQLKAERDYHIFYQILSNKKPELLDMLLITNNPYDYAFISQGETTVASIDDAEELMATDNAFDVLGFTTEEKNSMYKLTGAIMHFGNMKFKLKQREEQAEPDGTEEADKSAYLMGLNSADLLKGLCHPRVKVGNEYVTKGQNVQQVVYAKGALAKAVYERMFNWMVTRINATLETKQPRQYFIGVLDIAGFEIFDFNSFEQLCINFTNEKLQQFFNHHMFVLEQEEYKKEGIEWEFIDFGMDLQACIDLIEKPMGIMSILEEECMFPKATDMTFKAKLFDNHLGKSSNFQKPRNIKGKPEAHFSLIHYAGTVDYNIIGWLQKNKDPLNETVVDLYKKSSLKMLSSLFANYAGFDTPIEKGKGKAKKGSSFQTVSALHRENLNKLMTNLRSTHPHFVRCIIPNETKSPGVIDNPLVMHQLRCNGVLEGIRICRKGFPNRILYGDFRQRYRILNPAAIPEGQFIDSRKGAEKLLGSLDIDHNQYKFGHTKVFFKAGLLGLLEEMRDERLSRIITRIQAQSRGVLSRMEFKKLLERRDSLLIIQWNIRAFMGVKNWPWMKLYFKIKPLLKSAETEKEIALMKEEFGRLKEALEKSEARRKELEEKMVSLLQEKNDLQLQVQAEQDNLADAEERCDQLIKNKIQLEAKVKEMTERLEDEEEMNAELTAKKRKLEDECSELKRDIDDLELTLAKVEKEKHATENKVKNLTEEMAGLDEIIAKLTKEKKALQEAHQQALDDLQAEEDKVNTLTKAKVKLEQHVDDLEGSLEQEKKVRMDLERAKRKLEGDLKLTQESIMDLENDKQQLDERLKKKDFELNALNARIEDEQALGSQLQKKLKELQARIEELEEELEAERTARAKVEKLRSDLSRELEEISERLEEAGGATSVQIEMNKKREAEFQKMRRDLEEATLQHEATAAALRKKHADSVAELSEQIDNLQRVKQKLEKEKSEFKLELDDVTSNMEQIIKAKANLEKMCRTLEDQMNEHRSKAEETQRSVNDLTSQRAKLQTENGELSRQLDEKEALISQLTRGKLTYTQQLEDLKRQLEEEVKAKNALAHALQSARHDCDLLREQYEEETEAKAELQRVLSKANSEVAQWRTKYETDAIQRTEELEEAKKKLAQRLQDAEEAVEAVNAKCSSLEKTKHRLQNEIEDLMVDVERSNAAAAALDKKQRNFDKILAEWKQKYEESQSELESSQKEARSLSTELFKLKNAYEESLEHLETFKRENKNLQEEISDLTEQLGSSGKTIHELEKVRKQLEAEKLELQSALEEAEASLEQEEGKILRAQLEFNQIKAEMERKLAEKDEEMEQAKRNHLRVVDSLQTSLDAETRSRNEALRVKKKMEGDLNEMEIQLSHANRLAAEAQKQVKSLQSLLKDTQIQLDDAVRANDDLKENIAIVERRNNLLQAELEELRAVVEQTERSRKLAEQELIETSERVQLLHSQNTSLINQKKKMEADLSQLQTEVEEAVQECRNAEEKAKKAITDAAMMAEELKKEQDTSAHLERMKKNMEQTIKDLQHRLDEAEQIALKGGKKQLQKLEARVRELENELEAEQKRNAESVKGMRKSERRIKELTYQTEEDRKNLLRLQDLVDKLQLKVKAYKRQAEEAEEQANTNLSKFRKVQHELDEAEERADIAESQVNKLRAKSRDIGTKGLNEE
Chain of bovine cardiac myofibrils (CMF) (P85100 whole entry partner): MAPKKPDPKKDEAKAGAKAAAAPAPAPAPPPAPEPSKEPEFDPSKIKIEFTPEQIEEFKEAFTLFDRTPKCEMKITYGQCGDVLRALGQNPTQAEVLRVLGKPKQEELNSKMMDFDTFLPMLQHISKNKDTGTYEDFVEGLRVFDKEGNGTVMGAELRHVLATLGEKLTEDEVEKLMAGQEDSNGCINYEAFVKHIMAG
Chain of bovine cardiac myofibrils (CMF) (Q3SZE5 whole entry partner): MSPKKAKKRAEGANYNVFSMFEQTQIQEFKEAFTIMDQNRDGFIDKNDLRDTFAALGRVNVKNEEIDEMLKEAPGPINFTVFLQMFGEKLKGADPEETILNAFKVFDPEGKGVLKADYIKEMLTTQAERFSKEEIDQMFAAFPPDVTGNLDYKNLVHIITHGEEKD

[5] = system: fast skeletal muscle (Tiberialis Anterior) myofibrils; test: Myofibrillar ATPase, fast skeletal myofibrils; format: biochemical, marmoset (Callithrix jacchus)
Source text: as §1, §2

With `CCc1cc2c(=O)n(NC(=S)NC(C)C)cnc2s1` [F10] the “reduction of ATPase activity of fully Ca^2+-activated cardiac myofibrils” value (cardiac myofibrils; 20 μmol L^−1 F10) was “about 25%”, the “Myofibrilar ATPase [%], change vs control” value (cardiac myofibrils; Cardiac, 20 μmol L^-1 F10) was -25% and the “Myofibrilar ATPase, individual experiments” value (cardiac myofibrils; Cardiac, 20 μmol L^-1 F10) was 83.5308% and 67.1834% and 78.6678% and 70.8623% and 61.5039% and 74.009% and 72.9056% and 72.7421% and 68.3286% and 79.5291% and 87.482% and 81.308% and 87.6564% and 79.3198% and 89.7828% and 83.8896% and 74.0503% and 38.3012% and 88.0917% and 60.4189%. For the same compound, the “decrease in ATPase activity of soleus myofibrils” value ([1]; 20 μmol L^−1 F10) was “about 10%”, the “Myofibrilar ATPase [%], change vs control” value ([1]; Soleus (slow), 20 μmol L^-1 F10) was -10% and the “Myofibrilar ATPase, individual experiments” value ([1]; Soleus, 20 μmol L^-1 F10) was 91.7277% and 110.835% and 94.2329% and 93.0845% and 93.8276% and 88.6937% and 89.9096% and 92.8819% and 84.7083% and 101.326% and 81.2354% and 85.1848% and 83.8911% and 92.3346% and 84.6401% and 69.9319% and 80.963% and 77.0136% and 90.9224% and 106.296% and 102.343% and 99.9268% and 89.6779% and 109.737%. The “Normalized force, Force-pCa Titration” value ([2]; pCa 4.5) was 1.00, the “Normalized force, Force-pCa Titration” value ([2]; pCa 5.5) was 0.88 and 0.85 and 0.81 and the “Normalized force, Force-pCa Titration” value ([2]; pCa 5.6) was 0.73 and 0.76 and 0.72. The “Normalized force, Force-pCa Titration” value ([2]; pCa 5.7) was 0.48 and 0.55 and 0.53, the “Normalized force, Force-pCa Titration” value ([2]; pCa 5.8) was 0.13 and 0.14 and 0.18 and the “force re-development, Representative Traces” value ([2]; t 0.0001 s) was 0.9946. The “force re-development, Representative Traces” value ([2]; t 0.0002 s) was 0.9927, the “force re-development, Representative Traces” value ([2]; t 0.0003 s) was 0.9927 and the “force re-development, Representative Traces” value ([2]; t 0.0004 s) was 0.9927. For the same compound, the IC50 ([2]; Rattus norvegicus, pCa 5.9, about 50% maximal activation, read-out: IC50 active isometric force) was 9 µM, the “pCa50 of force development” value ([2]; in the presence of F10 (20 μM), control 5.88 ± 0.02) was 5.69 ± 0.01 and 5.68 and 5.693 and 5.684 and the Tmin ([2]; individual replicates) was 2.9 and 4.1 and 1.3 and 4.3 and 4.9. For the same compound, the ktr ([2]; individual replicates) was 35.4 and 37.1 and 32.7, the nH ([2]; individual replicates) was 5.8 and 6.0 and 4.9 and the pCa50 ([2]; individual replicates) was 5.68 (2×) and 5.69. The “Isometric force, individual trabeculae” value ([2]; pCa 4.5, 20 μmol L^−1 F10) was 16.0321 and 19.6135 and 8.993 and 17.2526 and 16.2235, the “decrease of maximal active isometric tension” value ([2]; pCa 4.5, 20 μmol L^−1 F10) was “more than 75%” and the “Normalized Force (Tension)” value ([2]; F10 5 micromolar) was 80.6034 % control. The “Normalized Force (Tension)” value ([2]; F10 10 micromolar) was 50.8621 % control, the “Normalized Force (Tension)” value ([2]; F10 20 micromolar) was 27.5862 % control and the “Normalized Force (Tension)” value ([2]; F10 40 micromolar) was 17.2414 % control. For the same compound, the “Isometric force, individual trabeculae” value ([2]; pCa 9, 20 μmol L^−1 F10) was 2.857 and 4.07 and 1.256 and 4.268 and 4.903, the “effect on passive tension” value ([2]; pCa 9, 20 μmol L^−1 F10) was “no effect” and the “Tmin (passive tension)” value ([2]; pCa 9, 20 μmol L^−1 F10, control 3.4 ± 0.5) was 3.5 ± 0.6 mN mm-2. The “rate of force re-development ktr, individual trabeculae (Bar Graph)” value ([2]; slack-re-stretch protocol, F10, in s-1 (unit assumed)) was 35.4 and 37.11 and 32.67, the “rate of force re-development ktr” value ([2]; slack-re-stretch protocol, in the presence of F10, control 12.0 ± 1.9) was 35.1 ± 1.3 s⁻¹ and 35 ± 1 s⁻¹ and the “biological activity in primary screen” value [3] was “without, however, any biological activity”. The IC50 [4] was ~24 µM, the “maximal inhibition of bovine CMF ATPase activity” value ([4]; suboptimal Ca^2+-activation, about 70% maximal activation) was “about 60%” and the “effect on ATPase of myofibrils isolated from fast skeletal muscle” value ([5]; 20 μmol L^−1 F10) was “no effect”. The “Myofibrilar ATPase, individual experiments” value ([5]; Tiberialis Anterior, 20 μmol L^-1 F10) was 103.058% and 94.7749% and 105.182% and 96.587% and 92.4359% and 90.2726% and 101.147% and 99.8027% and 75.8898% and 104.538% and 92.5792% and 95.4782% and 84.5124% and 86.7812% and 82.9998% and 107.831% and 122.01% and 86.3954% and 97.5199% and 112.738% and 111.197% and 105.032% and 96.8457% and the “Myofibrilar ATPase [%], change vs control” value ([5]; Tiberials Anterior (fast), 20 μmol L^-1 F10) was -3%.
